Experimental data from paper PMC9224473 (International Journal of Molecular Sciences, 2022).
Converted amounts (≈) assume the structure as drawn. Read-outs that look alike come from different tables or passages of the source.

Tests used:
S. aureus ATCC 25923 = assay: MIC, broth microdilution, standard strain; format: cell-based, Staphylococcus aureus; conditions: 35 °C
S. aureus ATCC 29213 = assay: MIC, broth microdilution, standard strain; format: cell-based, Staphylococcus aureus; conditions: 35 °C
S. aureus T 5595 = assay: MIC, broth microdilution, clinical strain; format: cell-based, Staphylococcus aureus; conditions: 35 °C
E. coli ATCC 25922 = assay: MIC, broth microdilution, standard strain; format: cell-based, Escherichia coli; conditions: 35 °C
P. aeruginosa ATCC 15442 = assay: MIC, broth microdilution, standard strain; format: cell-based, Pseudomonas aeruginosa; conditions: 35 °C
S. pasteuri KR 4358 = assay: MIC, broth microdilution, clinical strain; format: cell-based, Staphylococcus pasteuri; conditions: 35 °C
S. epidermidis KR 4243 = assay: MIC, broth microdilution, clinical strain; format: cell-based, Staphylococcus epidermidis; conditions: 35 °C
S. aureus ATCC 6538 = assay: MIC, broth microdilution, standard strain; format: cell-based, Staphylococcus aureus; conditions: 35 °C
[1] = tested on: SW620 (human metastatic colon cancer); assay: MTT cytotoxicity assay; format: cell-based; conditions: mean SD
Method: (§1) The human cell lines SW480 (primary colon cancer), SW620 (lymph node metastatic colon cancer from the same patient as primary cancer cells), HCT116 (colon carcinoma), HepG2 (liver cancer), and HaCaT (immortalized keratinocytes) were obtained from the American Type Culture Collection (ATCC, Rockville, MD, USA). The SW480, SW620 and HCT116 cells were grown in MEM (ThermoSci, Waltham, MA, USA), HepG2 and HaCaT in DMEM High Glucose (Biowest SAS, Nuaillé, France) supplemented with 10% foetal bovine serum (FBS), HEPES (20 mM), and antibiotics (100 U mL^−1 of Penicillin and 100 μg mL^−1 of Streptomycin). The cells were incubated in a humidified incubator at 37 °C/5% CO2, until 80–90% confluence was reached.
The cell viability was assessed by using of MTT salt [3-(4,5-dimethylthiazol-2-yl)-2,5-diphenyltetrazolium bromide] converted by mitochondrial dehydrogenase, occurring in living cells. […] The untreated cells were used as the control.
(§2) Subsequently, the medium was removed and dimethyl sulfoxide (DMSO) with isopropanol (1:1) was added to dissolve the formazan crystals. The optical density was measured using UVM 340 reader (ASYS Hitech GmbH, Eugendorf, Austria) at a wavelength of 570 nm. The experiments were repeated three times. The cell viability was calculated as the percent of MTT reduced in treated cells versus control cells (untreated cells). The number of viable cells cultured without tested compounds was assumed as 100%. A decreased relative MTT level indicates decreased cell viability. The IC50 values were estimated using CompuSyn version 1.0.

E. coli 510 = assay: MIC, broth microdilution, clinical strain; format: cell-based, Escherichia coli; conditions: 35 °C
S. aureus NCTC 4163 = assay: MIC, broth microdilution, standard strain; format: cell-based, Staphylococcus aureus; conditions: 35 °C
E. coli 520 = assay: MIC, broth microdilution, clinical strain; format: cell-based, Escherichia coli; conditions: 35 °C
E. coli 600 = assay: MIC, broth microdilution, clinical strain; format: cell-based, Escherichia coli; conditions: 35 °C
[2] = tested on: S. epidermidis ATCC 35984; assay: MIC, broth microdilution, standard strain; format: cell-based, Staphylococcus epidermidis; conditions: 35 °C
S. aureus T 5591 = assay: MIC, broth microdilution, clinical strain; format: cell-based, Staphylococcus aureus; conditions: 35 °C
[3] = tested on: HepG2 (human liver cancer); assay: MTT cytotoxicity assay; format: cell-based; conditions: mean SD
Method: as §1
(§3) The cell viability was assessed by using of MTT salt [3-(4,5-dimethylthiazol-2-yl)-2,5-diphenyltetrazolium bromide] converted by mitochondrial dehydrogenase, occurring in living cells. The cells were seeded in 96-well plates at a density of 1 × 10^4 cells per well and allowed to adhere for 24 h at 37 °C in a CO2 humidified incubator. […]. The untreated cells were used as the control.
as §2, with “After 72 h incubation, the medium was replaced with 200 µL per well of free-serum medium containing 0.5 mg mL^−1 MTT and incubated for 4 h at 37 °C in a CO2 humidified incubator. Subsequently,” for “Subsequently,”

[4] = tested on: SW480 (human primary colon cancer); assay: MTT cytotoxicity assay; format: cell-based; conditions: mean SD
Method: as §1, §3
as §2, with “After 72 h incubation, the medium was replaced with 200 µL per well of free-serum medium containing 0.5 mg mL^−1 MTT and incubated for 4 h at 37 °C in a CO2 humidified incubator. Subsequently,” for “Subsequently,”

[5] = tested on: HCT116 (human colon cancer); assay: MTT cytotoxicity assay; format: cell-based; conditions: mean SD
Method: as §1, §3
as §2, with “After 72 h incubation, the medium was replaced with 200 µL per well of free-serum medium containing 0.5 mg mL^−1 MTT and incubated for 4 h at 37 °C in a CO2 humidified incubator. Subsequently,” for “Subsequently,”

[6] = tested on: HaCaT (human immortal keratinocyte cell line); assay: MTT cytotoxicity assay; format: cell-based; conditions: 72 h, mean SD, read-out: IC50 HaCaT (normal cells)
Method: as §1, §3
as §2, with “After 72 h incubation, the medium was replaced with 200 µL per well of free-serum medium containing 0.5 mg mL^−1 MTT and incubated for 4 h at 37 °C in a CO2 humidified incubator. Subsequently,” for “Subsequently,”

[7] = tested on: S. epidermidis ATCC 12228; assay: MIC, broth microdilution, standard strain; format: cell-based, Staphylococcus epidermidis; conditions: 35 °C
P. aeruginosa 659 = assay: MIC, broth microdilution, clinical strain; format: cell-based, Pseudomonas aeruginosa

1-cyclopropyl-6-fluoro-7-{4-[2-(2-isopropyl-5-methylphenoxy)acetyl]piperazin-1-yl}-4-oxo-1,4-dihydroquinoline-3-carboxylic acid [Compound 10]
MIC S. aureus ATCC 25923 (S. aureus ATCC 25923; 19 h): 4 mg/L
MIC S. aureus ATCC 29213 (S. aureus ATCC 29213; 19 h): 4 mg/L
MIC S. aureus T 5595 (S. aureus T 5595; 19 h): 8 mg/L
MIC E. coli ATCC 25922 (E. coli ATCC 25922; 19 h): 32 mg/L
MIC P. aeruginosa ATCC 15442 (P. aeruginosa ATCC 15442; 19 h): 256 mg/L
MIC S. pasteuri KR 4358 (S. pasteuri KR 4358; 19 h): 16 mg/L
MIC S. epidermidis KR 4243 (S. epidermidis KR 4243; 19 h): 16 mg/L
MIC S. aureus ATCC 6538 (S. aureus ATCC 6538; 19 h): 4 mg/L
IC50 ([1]; 72 h): 59 ± 1.2 µM
MIC E. coli 510 (E. coli 510; 19 h): >256 mg/L
MIC S. aureus NCTC 4163 (S. aureus NCTC 4163; 19 h): 4 mg/L
MIC E. coli 520 (E. coli 520; 19 h): 64 mg/L
MIC E. coli 600 (E. coli 600; 19 h): 64 mg/L
MIC S. epidermidis ATCC 35984 ([2]; 19 h): 8 mg/L
MIC S. aureus T 5591 (S. aureus T 5591; 19 h): 8 mg/L
IC50 ([3]; 72 h): 26.1 ± 0.1 µM
IC50 ([4]; 72 h): 57.2 ± 2.7 µM
IC50 ([5]; 72 h): > 100 µM
IC50 [6]: 37.1 ± 2.1 µM
MIC S. epidermidis ATCC 12228 ([7]; 19 h): 8 mg/L
MIC P. aeruginosa 659 (P. aeruginosa 659; 19 h, 35 °C): 256 mg/L

O=C(O)c1cn(C2CC2)c2cc(N3CCNCC3)c(F)cc2c1=O [Ciprofloxacin, reference compound]
IC50 ([1]; Homo sapiens, SW-620, 72 h): > 100 µM
IC50 ([3]; Homo sapiens, HepG2, 72 h): > 100 µM
IC50 ([4]; Homo sapiens, SW480, 72 h): > 100 µM
IC50 ([5]; Homo sapiens, HCT-116, 72 h): > 100 µM
IC50 ([6]; Homo sapiens, HaCaT): > 100 µM

CC(C)[C@@H]1CC[C@@H](C)C[C@H]1OCC(=O)N1CCN(c2cc3c(cc2F)c(=O)c(C(=O)O)cn3C2CC2)CC1 [Compound 1, 1-cyclopropyl-6-fluoro-7-{4-[2-((1R,2S,5R)-2-isopropyl-5-methylcyclohexyloxy)acetyl]piperazin-1-yl}-4-oxo-1,4-dihydroquinoline-3-carboxylic acid]
MIC (S. aureus ATCC 25923; Staphylococcus aureus, ATCC25923, 19 h): 4 mg/L (≈ 7.58 µM)
MIC (S. aureus ATCC 29213; Staphylococcus aureus, ATCC29213, 19 h): 4 mg/L (≈ 7.58 µM)
MIC (S. aureus T 5595; Staphylococcus aureus, T5595, 19 h): 8 mg/L (≈ 15.2 µM)
MIC (E. coli ATCC 25922; Escherichia coli, ATCC25922, 19 h): 32 mg/L (≈ 60.6 µM)
MIC (P. aeruginosa ATCC 15442; Pseudomonas aeruginosa, ATCC15442, 19 h): > 256 mg/L
MIC (S. pasteuri KR 4358; Staphylococcus pasteuri, KR4358, 19 h): 8 mg/L (≈ 15.2 µM)
MIC (S. epidermidis KR 4243; Staphylococcus epidermidis, KR4243, 19 h): 8 mg/L (≈ 15.2 µM)
MIC (S. aureus ATCC 6538; Staphylococcus aureus, ATCC6538, 19 h): 4 mg/L (≈ 7.58 µM)
IC50 ([1]; Homo sapiens, SW-620, 72 h): 28.1 ± 2.1 µM
MIC (E. coli 510; Escherichia coli, 510, 19 h): > 256 mg/L
MIC (S. aureus NCTC 4163; Staphylococcus aureus, NCTC4163, 19 h): 2 mg/L (≈ 3.79 µM)
MIC (E. coli 520; Escherichia coli, 520, 19 h): 32 mg/L (≈ 60.6 µM)
MIC (E. coli 600; Escherichia coli, 600, 19 h): 32 mg/L (≈ 60.6 µM)
MIC ([2]; Staphylococcus epidermidis, ATCC35984, 19 h): 2 mg/L (≈ 3.79 µM)
MIC (S. aureus T 5591; Staphylococcus aureus, T5591, 19 h): 4 mg/L (≈ 7.58 µM)
IC50 ([3]; Homo sapiens, HepG2, 72 h): 23.1 ± 0.2 µM
IC50 ([4]; Homo sapiens, SW480, 72 h): 39.9 ± 4.5 µM
IC50 ([5]; Homo sapiens, HCT-116, 72 h): 34.9 ± 1.4 µM
IC50 ([6]; Homo sapiens, HaCaT): 21.7 ± 0.8 µM
MIC ([7]; Staphylococcus epidermidis, ATCC12228, 19 h): 4 mg/L (≈ 7.58 µM)
MIC (P. aeruginosa 659; Pseudomonas aeruginosa, 659, read-out: MIC P. aeruginosa 659, 19 h, 35 °C): > 256 mg/L
